Source: patent US20260272936A1, “TREATMENT OF CANCER WITH A PARG INHIBITOR” (858 Therapeutics, Inc., priority 2023, published 2026)
pIC50: −log10 of the molar value. Like-named read-outs stand apart in the source and are kept apart here.

What was measured:
OVCAR3 cells = assay: 6-day growth assay, Compound 1 in combination with camonsertib; type: cell-based; details: Homo sapiens, OVCAR-3, 144 h, read-out: Compound 1 IC50, 6-Day Nuclei Count
[1] = tested on: RMUG-S ovarian cancer xenograft; assay: RMUG-S ovarian cancer CDX model; type: in vivo, NOD SCID or NOG mice
Description: The CDX model was established by subcutaneous inoculation of 1×10^7 viable RMUG-S cells into the right flank of NOD SCID or NOG mice. […] Compound 1 was administered to mice orally either once daily (QD) or twice daily (BID) for 32-50 days. Compound 1 was administered to mice continuously throughout the treatment period (7/7 days) or intermittently from Monday-Friday (5/7 days), or Monday-Thursday (4/7 days) during the treatment period.
For all studies, tumor volumes and body weights were measured twice weekly. […] Statistical analysis of end-of-study mean tumor volumes for the T025OV model was performed using an unpaired t-test with Welch's correction.

GP2D cells = assay: 6-day growth assay, Compound 1 in combination with exatecan; type: cell-based, human
Description: The activity of Compound 1 in combination with exatecan was evaluated in the HCC1954, HCC1806, and GP2D cancer cell lines in a 6-day growth assay. HCC1954 (Cat #CRL-2338) and HCC1806 (Cat #CRL-2335) cells were obtained from American Type Culture Collection (ATCC) and maintained in ATCC modified RPMI (Cat #30-2001)+10% FBS (Cat #A3160502)+1% penicillin/streptomycin (Cat #15140-122) in a humidified incubator at 37° C., 5% CO2. GP2D cells were obtained from ECACC (Cat #95090714-1VL) and maintained in DMEM+GlutaMAX (Cat #10566-016)+10% FBS (Cat #A3160502)+1% penicillin/streptomycin (Cat #15140-122). Cells were seeded at 2,500 cells/well (HCC1954 and GP2D) or 2,000 cells/well (HCC1806) in 100 μL of growth medium in a 96-well plate (Corning costar Cat #3603) and allowed to adhere overnight at 37° C. with 5% CO2. The next day, serial dilutions of Compound 1 and exatecan were prepared and added to the corresponding wells of a 96-well plate. A solution of 0.1% DMSO in medium was used as the negative control. Cells were incubated with compound for 6 days at 37° C. with 5% CO2, then fixed, stained, and counted as described in Example 3. Concentration response-curves and IC50 values were generated by non-linear regression analysis using a 4-parameter variable slope fit in GraphPad Prism 10 software. Potential synergy between Compound 1 and exatecan was assessed using Zero interaction potency (ZIP), Highest Single Agent (HSA), Bliss, and Loewe synergy models to find the most synergistic area score, where scores >10 indicate that the interaction between the two drugs is likely to be synergistic (Ianevski et al. 2020).

[2] = tested on: Resistant SNU601 cells (acquired niraparib resistance); assay: 6-day proliferation, nuclei count, PARP inhibitor resistant line; type: cell-based, human
Description: The SNU601 gastric carcinoma cell line (Creative Bioarray, Cat #CSC-C9686L) was cultured in RPMI media containing glutamax, 10% fetal bovine serum, and 1% penicillin/streptomycin at 37° C., 5% CO2. To generate a PARP inhibitor resistant cell line, an IC20 concentration of niraparib was added to the culture media.
Compound 1 and the PARP inhibitor niraparib were tested in cellular proliferation assays using the parental SNU601 cell line and the SNU601 cell line with acquired PARPi resistance. For the proliferation assays, cells were plated in 96-well plates (Corning costar 3603) at 2500-5000 cells/well in normal growth media. The next day, compound dissolved in vehicle (0.5% DMSO in media) was added to generate a 7- to 10-point concentration curve with half-log dilutions and starting concentrations of 10 or 31.6 μM. After 6 days of compound or vehicle treatment, the cells were fixed with a solution of 8% paraformaldehyde, 0.2% Triton X-100 for 20 minutes. After washing the cells with PBS, the nuclei were stained by the addition of DAPI (4′,6-diamidino-2-phenylindole) and incubation for 20 minutes. The number of nuclei in each well were counted by imaging the plates on an Image Xpress Pico automated cell imaging system (Molecular Devices). The percent proliferation after treatment was determined by normalizing the number of nuclei in treated wells to the vehicle-treated wells. Concentration-response-curves and IC50 values for percent inhibition of proliferation were generated by non-linear regression analysis using GraphPad Prism 10 software.

Question: How did the pIC50 (OVCAR3 cells; camonsertib 0.032 nM) turn out when [2H]C([2H])(c1cnn(C)c1)N1C(=O)c2cc(S(=O)(=O)NC3(C)CC3)ccc2N2C1=NC[C@H]2C [Compound 1, (R)-1-methyl-4-((1-methyl-1H-pyrazol-4-yl)methyl-d2)-N-(1-methylcyclopropyl)-5-oxo-1,2,4,5-tetrahydroimidazo[1,2-a]quinazoline-7-sulfonamide] was run?
Answer: 4.41

Question: What about the pIC50 (OVCAR3 cells; camonsertib 0.32 nM) of the same molecule?
Answer: 4.36

Question: What about the pIC50 (OVCAR3 cells; camonsertib 3.2 nM) of the same molecule?
Answer: 4.54

Question: What about the pIC50 (OVCAR3 cells; camonsertib 10 nM) of the same molecule?
Answer: 4.92

Question: And the pIC50 (OVCAR3 cells; camonsertib 32 nM)?
Answer: 5.70

Question: What about the pIC50 (OVCAR3 cells; camonsertib 100 nM) of the same molecule?
Answer: 6.57

Question: What about the “mean body weight gain over the treatment period” value ([1]; first study, highest dose group) of the same molecule?
Answer: 5%

Question: What about the “tolerability (body weight)” value ([1]; second study) of the same molecule?
Answer: generally well tolerated

Question: What about the pIC50 (GP2D cells; Homo sapiens, GP2d, exatecan 0.03 nM) of the same molecule?
Answer: 5.22

Question: What about the pIC50 (GP2D cells; Homo sapiens, GP2d, exatecan 0.1 nM) of the same molecule?
Answer: 5.29

Question: And the pIC50 (GP2D cells; Homo sapiens, GP2d, exatecan 0.3 nM)?
Answer: 5.51

Question: What about the pIC50 (GP2D cells; Homo sapiens, GP2d, exatecan 1 nM) of the same molecule?
Answer: 5.51

Question: And the pIC50 (GP2D cells; Homo sapiens, GP2d, exatecan 3 nM)?
Answer: 5.09

Question: And the pIC50 (GP2D cells; Homo sapiens, GP2d, exatecan 30 nM)?
Answer: 5.27

Question: And the pIC50 (GP2D cells; exatecan 0.03 nM)?
Answer: 5.20

Question: And the pIC50 (GP2D cells; exatecan 1 nM)?
Answer: 5.48

Question: And the “better potency than niraparib in PARPi resistant SNU601” value [2]?
Answer: 10 ×

Question: And the pIC50 ([2]; Homo sapiens, SNU-601, 144 h, read-out: IC50 inhibition of proliferation)?
Answer: 6.49
